# Source: the Deep4Chem optical property database
# Assay: solvent given as SMILES
smiles,measurement,setting,value
C(=C\c1c2ccccc2cc2ccccc12)/c1cnc2ccccc2c1,absorption maximum,in CC1CCCCC1,386 nm
same,absorption maximum,in CC#N,386 nm
O=c1c2ccccc2n2c3ccccc3c(=O)c3cc(-c4ccccc4)cc1c32,absorption maximum,in CC#N,447 nm
same,absorption maximum,in CCCCCC,437 nm
same,absorption maximum,in CCCCOCCCC,440 nm
same,absorption maximum,in CCOC(C)=O,443 nm
same,absorption maximum,in CN(C)C=O,450 nm
same,absorption maximum,in Cc1ccccc1,445.76 nm
O=C(c1ccccc1)c1cc2ccc1CCc1ccc(c(-c3ccc(N(c4ccccc4)c4ccccc4)cc3)c1)CC2,absorption maximum,in Cc1ccccc1,312 nm
Cc1nc(-c2ccccc2)c2ccccn12,absorption maximum,in C1CCCCC1,374 nm
same,absorption maximum,in CC#N,364 nm
same,absorption maximum,in CO,354 nm
same,absorption maximum,in ClCCl,367 nm
same,absorption maximum,in O,338 nm
COc1ccc2c3ccc(OC)cc3n(-c3ccc(-c4nnc(-c5c(C)cc(C)cc5C)o4)cc3C)c2c1,absorption maximum,in Cc1ccccc1,319 nm
COc1ccc2cc(C#CC3=C4CCc5ccccc5C4=[O+][B-](F)(F)O3)ccc2c1,absorption maximum,in ClCCl,457 nm
CCCCCCCCCCCCCCCCCCOC(=O)/C=C/C1=CC2=C(c3c(C)cc(C)cc3C)c3cccn3[B-](F)(F)[N+]2=C1,absorption maximum,in ClCCl,538 nm
c1cc2c3c(cccc3c1)C(N1CCOCCOCCOCCOCC1)=N2,absorption maximum,in CC#N,427 nm
Cc1ccc(C)n1-c1ccccc1,absorption maximum,in CC#N,234 nm
same,absorption maximum,in CCCCCC,240 nm
CCCCN1C(=O)c2cccc3cc(C#CC#Cc4cc5c6c(cccc6c4)C(=O)N(CCCC)C5=O)cc(c23)C1=O,absorption maximum,in ClCCl,314 nm
CN(C)c1ccc(/C=C2\CC/C(=C\c3ccc(C#N)cc3)C2=O)cc1,absorption maximum,in C1CCOC1,458 nm
same,absorption maximum,in CC#N,456 nm
same,absorption maximum,in CC(C)=O,454 nm
same,absorption maximum,in CC(C)O,471 nm
same,absorption maximum,in CCCCO,473 nm
same,absorption maximum,in CCCCOC(C)=O,442 nm
same,absorption maximum,in CCCO,473 nm
same,absorption maximum,in CCO,472 nm
same,absorption maximum,in CCOC(=O)c1ccccc1,459 nm
same,absorption maximum,in CCOC(C)=O,446 nm
same,absorption maximum,in CCOCC,438 nm
same,absorption maximum,in CN(C)C=O,464 nm
same,absorption maximum,in CO,473 nm
same,absorption maximum,in CS(C)=O,471 nm
same,absorption maximum,in Cc1ccccc1,455 nm
same,absorption maximum,in ClC(Cl)(Cl)Cl,446 nm
same,absorption maximum,in ClC(Cl)Cl,469 nm
same,absorption maximum,in ClCCl,464 nm
same,absorption maximum,in Clc1ccccc1Cl,465 nm
same,absorption maximum,in O=C1CCCC1,460 nm
same,absorption maximum,in S=C=S,464 nm
same,absorption maximum,in c1ccccc1,457 nm
same,absorption maximum,in c1ccncc1,467 nm
COc1ccc(-c2c3ccccc3c(C#Cc3ccccc3)c3cc4ccccc4cc23)cc1,absorption maximum,in ClCCl,523 nm
O=C([O-])c1c(Cl)c(Cl)c(Cl)c(Cl)c1-c1c2cc(I)c(=O)c(I)c-2oc2c(I)c([O-])c(I)cc12,absorption maximum,in CC(C)O,561 nm
same,absorption maximum,in CCO,558 nm
same,absorption maximum,in CO,556 nm
same,absorption maximum,in O,548 nm
Cc1cc(O)c(C(=O)/C=C/c2ccc(Cl)cc2Cl)c(=O)o1,absorption maximum,in CC#N,349 nm
same,absorption maximum,in ClCCl,350 nm
CC(C)(C)C#Cc1ccc2c3cccc4cccc(c5cccc1c52)c43,absorption maximum,in C1CCCCC1,455 nm
CCCN1c2ccccc2Sc2cc(/C=C\c3cc(=O)oc4cc(C)ccc34)ccc21,absorption maximum,in ClC(Cl)Cl,424 nm
